We go through one substance from patent US5279956A, “Activated protein C polypeptides and anti-peptide antibodies, diagnostic methods and systems for inhibiting activated protein C” (The Scripps Research Institute, priority 1991, dated 1994).

In the assay the target is T1, APC (Homo sapiens, UniProt P04070).
T1 construct: begins at amino acid residue position 158 and ends at 419; The light chain is 155 amino acid residues in length; tissue Factor IX concentrate from Immuno AG, Vienna; thrombin from Enzyme Research Laboratories
In words: Activated partial thromboplastin time (APTT) coagulation assay of APC anticoagulant activity. Particulars: APTT assay in the presence of APC. Type of assay: biochemical. Here is the method:
The effect of the synthetic peptides on APC anticoagulant activity were determined using the APTT assay in the presence of either normal citrate anticoagulated plasma (NHP) or protein S depleted plasma (PSDP). The assays were performed essentially as described. See Marlar et al., Blood, 59:1067-1072 […]; Suzuki et al., J. Biol. Chem., 258:163-168 (1983); Gruber et al., Blood, 73:639-642 (1989); Ohlin et al., Biochem., 29:644-651 (1990). NHP was purchased from George King Bio-Medical, Inc. (Overland Park, Kans.). PSDP was prepared from a normal human citrate-anticoagulated plasma pool from ten healthy donors. Protein S was immunodepleted from the NHP by immunoaffinity chromatography of NHP over an anti-protein S antibody column to form PSDP. The anti-protein S antibody column was prepared by coupling 100 mg of a monoclonal, high-affinity, calcium-independent anti-PS antibody, designated S7, to 30 ml of CNBr-activated Sepharose 4B (Pharmacia) as described in Example 2c1). Residual total protein S content in the resultant PSDP was less than 0.1% protein S as determined by quantitative immunoblotting, by solid-phase ELISA for total protein S and by electroimmunoassay.
For the APTT assay, APC was prepared as described in Example 2c2). The specific anticoagulant activity of APC was determined to be 250 Units/mg. The concentration of the APC used in the assay was initially optimized with respect to the sensitivity of the assay towards APC-induced prolongation of clotting time compared to clotting time without APC.
Once the optimal concentration of APC was determined, peptides from Table 2 were then separately admixed for a final concentration of 500 μM with 10 nM APC in 100 μl of TBS-BSA at pH 7.4 to form peptide-APC admixtures. The resulting admixtures were maintained for seven minutes at 37° C. Separate aliquots of peptides maintained under the same conditions in the absence of APC served as controls for the inhibitory effect of synthetic peptides on APC anticoagulant activity. After the maintenance period, 100 μl of NHP and 100 μl APTT-reagent Thrombosil (Ortho Diagnostics, Raritan, N.J.) were admixed into each peptide admixture and maintained for 200 seconds at 37° C. to form a pre-coagulation admixture. In some experiments, PSDP was used in the place of NHP to determine the effect of Protein S on the assay system. Coagulation was then initiated by the admixture of 100 μl of 30 mM CaCl2 in TBS prewarmed to 37° C. to each of the pre-coagulation admixtures. The time for clot formation was measured by an Electra 700 Automatic Coagulation Timer (Medical Laboratory Automation, Inc., Mount Vernon, N.Y.). Each peptide's effect was determined in duplicate.
Additional assays were performed to compare the specificity of the inhibitory effect of peptide-(390-404) on APC anticoagulant activity. Both APTT and Xa-1-stage assays were performed with peptide-(390-404) and with the same peptide synthesized in the reverse order, peptide-(404-390), at concentrations of the peptides ranging from 0 μM to 40 μM. In APTT assays performed as described above in the presence of NHP, APC was used at a concentration of 2.5 nM. For APTT assays in the presence of PSDP, APC was used at a concentration of 5 nM. […]
Once the optimal concentration of APC was determined, anti-(390-404) was separately admixed ranging in concentration from 0.0 to 240 nM with APC in 200 μl of TBS-BSA and 30 mM CaCl2 at pH 7.4 to form an anti-(390-404)-APC immunoreaction admixture pre-maintenance solution. […]

No end group written: not given here.

T1 sequence (P04070 212-461): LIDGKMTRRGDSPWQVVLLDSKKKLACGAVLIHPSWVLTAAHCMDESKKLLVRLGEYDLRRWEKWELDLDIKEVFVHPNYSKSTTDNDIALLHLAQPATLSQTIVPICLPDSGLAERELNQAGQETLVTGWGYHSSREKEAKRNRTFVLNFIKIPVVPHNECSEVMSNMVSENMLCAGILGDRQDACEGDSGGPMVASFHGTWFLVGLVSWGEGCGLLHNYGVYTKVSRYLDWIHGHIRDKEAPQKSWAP
T1 sequence (P04070 43-197): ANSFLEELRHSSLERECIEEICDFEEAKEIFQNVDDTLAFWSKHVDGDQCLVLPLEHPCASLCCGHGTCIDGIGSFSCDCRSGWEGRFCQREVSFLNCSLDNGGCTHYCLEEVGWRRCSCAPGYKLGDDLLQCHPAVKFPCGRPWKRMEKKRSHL

On to “KRNRTFVLNFIKIPV-NH2 [peptide-(311-325), KRNRTFVLNFIKIPV]”, for which the IC50 (commonly the concentration at which inhibition is half-maximal) was determined as 20 µM and the IC90 (commonly the concentration at which the effect reaches the 90% level) was found to be 50 µM.
